According to patent publication US4087432A, “1H-imidazo(4,5-b)pyridine compounds” (Eli Lilly and Company, priority 1975, dated 1978):
“And” between values parts separate entries of the source, which are not always exact repeats. Equal values may be shown once.

Tests used:
Corn [1] = test: Preemergent injury rating, corn; type: in vivo; parameters: key: injury rating scale on which 4 = death
Description: (§1) Various of the compounds to be employed as active agent in accordance with the present invention were evaluated for preemergent application to various species of plants. In this evaluation, a soil was prepared consisting of one part masonry sand and one part shredded top soil blended together in a cement mixer. One gallon of this soil was placed in a 25 × 35 cm. galvanized flat and was patted down with a bench brush until level. A three-row marker was used to make 21/2 cm. deep furrows in approximately two-fifths of the flat. Crop seeds consisting of four kernels of corn, five cotton seeds and five soybean seeds were placed in these furrows. A four-row template was then placed on the remaining soil and the indicated approximate numbers of each of the following seeds were planted, one species to each section: foxtail (millet), 80-100 seeds; velvetleaf (40-50 seeds); rough pigweed (150-250 seeds); and large crabgrass (100-150 seeds).
(§2) Sufficient soil was added to cover the entire flat. Thus, the weed seeds were covered to a depth of about 6 mm. and the crop seeds were covered to a depth of about 3 cm.
(§3) In assaying the effect of the composition as preemergent herbicides, a flat prepared as above, taken either on the day of planting or on the next day, was placed in a chamber equipped with a turntable and an air exhaust. The herbicidal composition, either a spray-type emulsion or a wettable powder, was applied to the flat with a modified DeVilbiss atomizer hooked to an air source. Twelve and one-half milliliters of the composition under test were applied to each flat either on the day of planting or the succeeding day. Injury ratings and observations as to type of injury were made eleven to twelve days after treatment. The injury rating scale used was as follows:
(§4) 4--death When more than one determination was carried out at a given rate, an average value was calculated for the injury rating. Each compound evaluated was formulated as a spray by one of the following procedures. In one method the particular compound was wetted by grinding in a mortar with one part of polyoxyethylene sorbitan monolaurate. Five hundred parts of water were added slowly to the resultant creamy paste to give an aqueous dispersion with a surfactant concentration of 0.2 percent. This dispersion was entirely satisfactory for spray application. In a second procedure the compound was dissolved in one volume of acetone, and the acetone solution was diluted with nineteen volumes of water containing 0.1 percent of polyoxyethylene sorbitan monolaurate.
(§5) In the following table setting forth the results of the evaluation, column 1 gives the name of the compound under test; column 2, the rate in pounds per acre at which the compound was applied to the test flat; and the remaining columns, the injury to the particular plant seeds or seedlings as measured by the foregoing scale.

Cotton = test: Preemergent injury rating, cotton; type: in vivo; parameters: key: injury rating scale on which 4 = death
Description: as §1, §2, §3, §4, §5

Soybean = test: Preemergent injury rating, soybean; type: in vivo; parameters: key: injury rating scale on which 4 = death
Description: as §1, §2, §3, §4, §5

Crabgrass [2] = test: Preemergent injury rating, crabgrass; type: in vivo, large crabgrass; parameters: key: injury rating scale on which 4 = death
Description: as §1, §2, §3, §4, §5

Pigweed [3] = test: Preemergent injury rating, pigweed; type: in vivo, rough pigweed; parameters: key: injury rating scale on which 4 = death
Description: as §1, §2, §3, §4, §5

Foxtail [4] = test: Preemergent injury rating, foxtail; type: in vivo, foxtail (millet); parameters: key: injury rating scale on which 4 = death
Description: as §1, §2, §3, §4, §5

Corn [5] = test: Postemergent injury rating, corn; type: in vivo; parameters: key: injury rating scale, 4 = death
Description: as §1, §2, §3, §4
(§6) Representative compounds of the present invention were evaluated for postemergent application to plants including corn and several weed species. The evaluation was carried out in accordance with the procedures of Examples 49-52 except that the test solutions were applied about 9-12 days after the preparation and seeding of the flats.

Crabgrass [6] = test: Postemergent injury rating, crabgrass; type: in vivo, large crabgrass; parameters: key: injury rating scale, 4 = death
Description: as §1, §2, §3, §4, §6

Pigweed [7] = test: Postemergent injury rating, pigweed; type: in vivo, rough pigweed; parameters: key: injury rating scale, 4 = death
Description: as §1, §2, §3, §4, §6

Foxtail [8] = test: Postemergent injury rating, foxtail; type: in vivo, foxtail (millet); parameters: key: injury rating scale, 4 = death
Description: as §1, §2, §3, §4, §6

Velvet Leaf [9] = test: Preemergent injury rating, velvetleaf; type: in vivo; parameters: key: injury rating scale on which 4 = death
Description: as §1, §2, §3, §4, §5

Jimsonweed = test: General herbicidal effect alone/in combination, jimsonweed; type: in vivo; parameters: key: 0-10 scale: 0 = no injury, 10 = death; details: alone
Description: as §1, §2, §3, §4
(§7) 6-Chloro-1-hydroxy-2-(trifluoromethyl)-1H-imidazo(4,5-b)pyridine was evaluated in combination with 2-chloro-4-ethylamino-6-isopropylamino-s-triazine and separately in combination with 2-chloro-2',6'-diethyl-N-(methoxymethyl)acetanilide for the control of plants. The evaluations were conducted as described in Examples 49-52, except that the rates of compound differed and the species were different. General herbicidal effect was rated on a scale of 0-10, with 0 = no injury and 10 = death. Observations were also made for the following other specific phytotoxic effects.

Lambs Quarter = test: General herbicidal effect alone/in combination, lambsquarter; type: in vivo; parameters: key: 0-10 scale: 0 = no injury, 10 = death; details: alone, listed as A
Description: as §1, §2, §3, §4, §7

Velvet Leaf [10] = test: General herbicidal effect alone/in combination, velvetleaf; type: in vivo; parameters: key: 0-10 scale: 0 = no injury, 10 = death; details: alone
Description: as §1, §2, §3, §4, §7

Corn [11] = test: General herbicidal effect alone/in combination, corn (first Corn column); type: in vivo; parameters: key: 0-10 scale: 0 = no injury, 10 = death; details: alone
Description: as §1, §2, §3, §4, §7

Ragweed = test: General herbicidal effect alone/in combination, ragweed; type: in vivo; parameters: key: 0-10 scale: 0 = no injury, 10 = death; details: alone
Description: as §1, §2, §3, §4, §7

Pigweed [12] = test: General herbicidal effect alone/in combination, pigweed; type: in vivo; parameters: key: 0-10 scale: 0 = no injury, 10 = death; details: alone
Description: as §1, §2, §3, §4, §7

Morning glory = test: General herbicidal effect alone/in combination, morning glory; type: in vivo; parameters: key: 0-10 scale: 0 = no injury, 10 = death; details: alone
Description: as §1, §2, §3, §4, §7

Sorghum = test: General herbicidal effect alone/in combination, sorghum; type: in vivo; parameters: key: 0-10 scale: 0 = no injury, 10 = death; details: alone
Description: as §1, §2, §3, §4, §7

Foxtail Millet = test: General herbicidal effect alone/in combination, foxtail millet; type: in vivo; parameters: key: 0-10 scale: 0 = no injury, 10 = death; details: alone
Description: as §1, §2, §3, §4, §7

Corn [13] = test: General herbicidal effect alone/in combination, corn (second Corn column); type: in vivo; parameters: key: 0-10 scale: 0 = no injury, 10 = death; details: alone
Description: as §1, §2, §3, §4, §7

Large Crabgrass = test: General herbicidal effect alone/in combination, large crabgrass; type: in vivo; parameters: key: 0-10 scale: 0 = no injury, 10 = death; details: alone, 1.0 lbs/A; listed as A
Description: as §1, §2, §3, §4, §7

Rice = test: General herbicidal effect alone/in combination, rice; type: in vivo; parameters: key: 0-10 scale: 0 = no injury, 10 = death; details: alone
Description: as §1, §2, §3, §4, §7

Barnyard Grass = test: General herbicidal effect alone/in combination, barnyard grass; type: in vivo; parameters: key: 0-10 scale: 0 = no injury, 10 = death; details: alone
Description: as §1, §2, §3, §4, §7

## On1c(C(F)(F)F)nc2nc(Cl)ccc21 [5-chloro-1-hydroxy-2-(trifluoromethyl)-1H-imidazo(4,5-b)pyridine]
Corn [1]; 2 lbs/acre
  Injury Rating, Corn: 0
Corn [1]; 8 lbs/acre
  Injury Rating, Corn: 1
Cotton; 2 lbs/acre
  Injury Rating, Cotton: 0
Soybean; 2 lbs/acre
  Injury Rating, Soybean: 0
Crabgrass [2]; 2 lbs/acre
  Injury Rating, Crabgrass: 3
Crabgrass [2]; 8 lbs/acre
  Injury Rating, Crabgrass: 3
Pigweed [3]; 2 lbs/acre
  Injury Rating, Pigweed: 3
Pigweed [3]; 8 lbs/acre
  Injury Rating, Pigweed: 3
Foxtail [4]; 2 lbs/acre
  Injury Rating, Foxtail: 2
Foxtail [4]; 8 lbs/acre
  Injury Rating, Foxtail: 4

## On1c(C(F)(F)F)nc2nccc(Cl)c21 [7-chloro-1-hydroxy-2-(trifluoromethyl)-1H-imidazo(4,5-b)pyridine]
Corn [5]; 4 lbs/acre
  Injury Rating, Corn: 0
Corn [5]; 8 lbs/acre
  Injury Rating, Corn: 1
Crabgrass [6]; 4 lbs/acre
  Injury Rating, Crabgrass: 1
Crabgrass [6]; 8 lbs/acre
  Injury Rating, Crabgrass: 2
Pigweed [7]; 4 lbs/acre
  Injury Rating, Pigweed: 3
Pigweed [7]; 8 lbs/acre
  Injury Rating, Pigweed: 3
Foxtail [8]; 4 lbs/acre
  Injury Rating, Foxtail: 1
Foxtail [8]; 8 lbs/acre
  Injury Rating, Foxtail: 3

## On1c(C(F)(F)C(F)F)nc2nc(Cl)c(Cl)cc21 [1-hydroxy-5,6-dichloro-2-(1,1,2,2-tetrafluoroethyl)-1H-imidazo(4,5-b)pyridine]
Corn [1]; 1 lbs/acre
  Injury Rating, Corn: 0
Corn [1]; 2 lbs/acre
  Injury Rating, Corn: 0
Corn [1]; 4 lbs/acre
  Injury Rating, Corn: 0
Corn [1]; 8 lbs/acre
  Injury Rating, Corn: 0
Cotton; 1 lbs/acre
  Injury Rating, Cotton: 0
Cotton; 2 lbs/acre
  Injury Rating, Cotton: 0
Cotton; 4 lbs/acre
  Injury Rating, Cotton: 0
Soybean; 1 lbs/acre
  Injury Rating, Soybean: 0
Soybean; 2 lbs/acre
  Injury Rating, Soybean: 0
Soybean; 4 lbs/acre
  Injury Rating, Soybean: 1B
Crabgrass [2]; 1 lbs/acre
  Injury Rating, Crabgrass: 0
Crabgrass [2]; 2 lbs/acre
  Injury Rating, Crabgrass: 1BS
Crabgrass [2]; 4 lbs/acre
  Injury Rating, Crabgrass: 2BS
Crabgrass [2]; 8 lbs/acre
  Injury Rating, Crabgrass: 2B
Pigweed [3]; 1 lbs/acre
  Injury Rating, Pigweed: 1S
Pigweed [3]; 2 lbs/acre
  Injury Rating, Pigweed: 3BS
Pigweed [3]; 4 lbs/acre
  Injury Rating, Pigweed: 3BS
Pigweed [3]; 8 lbs/acre
  Injury Rating, Pigweed: 3BS
Foxtail [4]; 1 lbs/acre
  Injury Rating, Foxtail: 0
Foxtail [4]; 2 lbs/acre
  Injury Rating, Foxtail: 0
Foxtail [4]; 4 lbs/acre
  Injury Rating, Foxtail: 1BS
Foxtail [4]; 8 lbs/acre
  Injury Rating, Foxtail: 1S
Velvet Leaf [9]; 1 lbs/acre
  Injury Rating, Velvet Leaf: 0
Velvet Leaf [9]; 2 lbs/acre
  Injury Rating, Velvet Leaf: 1B
Velvet Leaf [9]; 4 lbs/acre
  Injury Rating, Velvet Leaf: 1B
Velvet Leaf [9]; 8 lbs/acre
  Injury Rating, Velvet Leaf: 3B

## On1c(C(F)(F)F)nc2ncc(Cl)cc21 [6-chloro-1-hydroxy-2-(trifluoromethyl)-1H-imidazo(4,5-b)pyridine]
Corn [1]; 1 lbs/acre
  Injury Rating, Corn: 0
Corn [1]; 2 lbs/acre
  Injury Rating, Corn: 0
Corn [1]; 4 lbs/acre
  Injury Rating, Corn: 1
Corn [1]; 8 lbs/acre
  Injury Rating, Corn: 1
Cotton; 1 lbs/acre
  Injury Rating, Cotton: 0
Cotton; 2 lbs/acre
  Injury Rating, Cotton: 0
Cotton; 4 lbs/acre
  Injury Rating, Cotton: 0
Cotton; 8 lbs/acre
  Injury Rating, Cotton: 2
Soybean; 1 lbs/acre
  Injury Rating, Soybean: 0
Soybean; 2 lbs/acre
  Injury Rating, Soybean: 0
Soybean; 4 lbs/acre
  Injury Rating, Soybean: 0
Soybean; 8 lbs/acre
  Injury Rating, Soybean: 1
Crabgrass [2]; 1 lbs/acre
  Injury Rating, Crabgrass: 4
Crabgrass [2]; 2 lbs/acre
  Injury Rating, Crabgrass: 3
Crabgrass [2]; 4 lbs/acre
  Injury Rating, Crabgrass: 4
Crabgrass [2]; 8 lbs/acre
  Injury Rating, Crabgrass: 4
Pigweed [3]; 1 lbs/acre
  Injury Rating, Pigweed: 4
Pigweed [3]; 2 lbs/acre
  Injury Rating, Pigweed: 4
Pigweed [3]; 4 lbs/acre
  Injury Rating, Pigweed: 4
Pigweed [3]; 8 lbs/acre
  Injury Rating, Pigweed: 4
Foxtail [4]; 1 lbs/acre
  Injury Rating, Foxtail: 3
Foxtail [4]; 2 lbs/acre
  Injury Rating, Foxtail: 3
Foxtail [4]; 4 lbs/acre
  Injury Rating, Foxtail: 3
Foxtail [4]; 8 lbs/acre
  Injury Rating, Foxtail: 3
Velvet Leaf [9]; 1 lbs/acre
  Injury Rating, Velvet Leaf: 2
Velvet Leaf [9]; 2 lbs/acre
  Injury Rating, Velvet Leaf: 4
Velvet Leaf [9]; 4 lbs/acre
  Injury Rating, Velvet Leaf: 4
Velvet Leaf [9]; 8 lbs/acre
  Injury Rating, Velvet Leaf: 3
Jimsonweed; 0.25 lbs/A, listed as A
  herbicidal effect, Jimsonweed: 4B and 2B
Jimsonweed; 0.5 lbs/A, listed as A
  herbicidal effect, Jimsonweed: 8BS and 5BS
Jimsonweed; 1.0 lbs/A
  herbicidal effect, Jimsonweed: 9BS
Jimsonweed; 2.0 lbs/A
  herbicidal effect, Jimsonweed: 9BS
Lambs Quarter; 1.0 lbs/A
  herbicidal effect, Lambs Quarter: 9SB and 6SB
Lambs Quarter; 2.0 lbs/A
  herbicidal effect, Lambs Quarter: 9BS and 8BS
Velvet Leaf [10]; 0.25 lbs/A
  herbicidal effect, Velvet leaf: 0
Velvet Leaf [10]; 0.5 lbs/A, listed as A
  herbicidal effect, Velvet leaf: 2S and 3S
Corn [11]; 0.25 lbs/A
  herbicidal effect, Corn: 0
Corn [11]; 0.5 lbs/A
  herbicidal effect, Corn: 0
Corn [11]; 1.0 lbs/A
  herbicidal effect, Corn: 0
Ragweed; 0.25 lbs/A, listed as A
  herbicidal effect, Ragweed: 2S and 3S
Ragweed; 1.0 lbs/A
  herbicidal effect, Ragweed: 8BS
Pigweed [12]; 0.25 lbs/A
  herbicidal effect, Pigweed: 0
Pigweed [12]; 0.5 lbs/A, listed as A
  herbicidal effect, Pigweed: 2S and 3S
Morning glory; 0.5 lbs/A
  herbicidal effect, Morning glory: 10D
Morning glory; 2.0 lbs/A
  herbicidal effect, Morning glory: 10D
Sorghum; 0.25 lbs/A
  herbicidal effect, Sorghum: 0
Sorghum; 1.0 lbs/A
  herbicidal effect, Sorghum: 8BS
Sorghum; 2.0 lbs/A
  herbicidal effect, Sorghum: 10D
Foxtail Millet; 0.25 lbs/A
  herbicidal effect, Foxtail Millet: 0
Foxtail Millet; 0.5 lbs/A
  herbicidal effect, Foxtail Millet: 2S
Foxtail Millet; 2.0 lbs/A
  herbicidal effect, Foxtail Millet: 10D
Corn [13]; 0.25 lbs/A
  herbicidal effect, Corn: 0
Corn [13]; 0.5 lbs/A
  herbicidal effect, Corn: 0
Corn [13]; 1.0 lbs/A
  herbicidal effect, Corn: 0
Large Crabgrass
  herbicidal effect, Large Crabgrass: 3S and 2S
Rice; 0.25 lbs/A
  herbicidal effect, Rice: 0
Rice; 0.5 lbs/A
  herbicidal effect, Rice: 3B
Barnyard Grass; 0.25 lbs/A
  herbicidal effect, Barnyard Grass: 0
Barnyard Grass; 1.0 lbs/A, listed as A
  herbicidal effect, Barnyard Grass: 3S and 2S
Barnyard Grass; 2.0 lbs/A
  herbicidal effect, Barnyard Grass: 9BS
